Assay: xn = mol fraction of the nth substance listed
Details: 100 kPa

CC[N+](CC)(CC)CC.O=S(=O)([O-])C(F)(F)F + CC#N
electrical conductivity [S/m]
Details	x1 = 0.02	x1 = 0.05	x1 = 0.08	x1 = 0.0997	x1 = 0.1199	x1 = 0.1498	x1 = 0.2	x1 = 0.25	x1 = 0.2995
293.15 K	–	–	4.63	4.72	4.54	4.22	3.51	2.89	2.58
298.15 K	2.66	4.19	4.71	–	4.7	4.38	3.62	3.14	2.82
303.15 K	2.77	4.39	4.84	5	4.96	4.48	3.78	3.39	3.08
308.15 K	2.87	4.57	5.08	5.24	5.22	–	4.06	3.65	3.35
313.15 K	2.97	4.76	5.31	5.49	5.48	5.04	4.34	3.91	3.62
318.15 K	3.08	–	5.54	5.73	5.74	5.32	4.61	4.17	–
323.15 K	3.18	5.11	5.77	5.98	5.99	5.6	4.89	4.44	–
328.15 K	3.28	5.29	6	6.22	6.25	5.88	5.17	4.7	4.44
333.15 K	3.38	5.46	6.23	6.45	6.5	6.15	–	–	–
338.15 K	3.47	5.64	6.45	6.69	6.76	6.42	5.72	5.22	5.01
343.15 K	3.58	5.81	6.67	6.92	7.02	6.7	6	5.5	5.28
348.15 K	–	5.97	–	7.16	7.27	–	6.26	5.77	5.55

Reference: a compilation of properties of binary mixtures (doi:10.1016/j.molliq.2022.120536)
